Legend:
Assay in all cases: Kinase panel enzymatic inhibition assay (Nanosyn)
Format in all cases: biochemical
Conditions in all cases: compound 5 μM; ATP at Km; 30-minute pre-incubation
SRC = target: T1, SRC (Homo sapiens, UniProt P12931)
T1 construct: Nanosyn (contract laboratory that ran the panel)
Outline: (§1)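 Single-point screen: compound 5 μM, ATP at Km per kinase, 30 min pre-incubation. Readout by mobility shift (Caliper LabChip), ADP detection or TR-fluorescence. Reported as % inhibition or IC50.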

LYNb = target: T2, LYNb (Homo sapiens, UniProt P07948)
T2 construct: purchased Nanosyn (contract screening)
Outline: as §1

p38b = target: T3, p38b (Homo sapiens, UniProt Q15759)
T3 construct: Nanosyn (contract laboratory that ran the panel)
T3 sequence (Q15759 whole entry): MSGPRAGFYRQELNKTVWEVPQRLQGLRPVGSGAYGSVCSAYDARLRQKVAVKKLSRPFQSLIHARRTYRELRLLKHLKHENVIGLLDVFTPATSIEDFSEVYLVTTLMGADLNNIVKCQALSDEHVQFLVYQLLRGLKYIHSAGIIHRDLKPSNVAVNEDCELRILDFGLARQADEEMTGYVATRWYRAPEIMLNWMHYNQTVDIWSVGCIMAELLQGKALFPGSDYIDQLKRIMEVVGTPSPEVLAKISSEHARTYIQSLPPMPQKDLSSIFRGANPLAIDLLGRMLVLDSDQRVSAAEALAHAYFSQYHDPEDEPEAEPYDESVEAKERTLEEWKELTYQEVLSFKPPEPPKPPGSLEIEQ
Outline: as §1

HGK = target: T4, HGK (Homo sapiens, UniProt O95819)
T4 construct: purchased Nanosyn (contract screening)
T4 sequence (O95819 whole entry): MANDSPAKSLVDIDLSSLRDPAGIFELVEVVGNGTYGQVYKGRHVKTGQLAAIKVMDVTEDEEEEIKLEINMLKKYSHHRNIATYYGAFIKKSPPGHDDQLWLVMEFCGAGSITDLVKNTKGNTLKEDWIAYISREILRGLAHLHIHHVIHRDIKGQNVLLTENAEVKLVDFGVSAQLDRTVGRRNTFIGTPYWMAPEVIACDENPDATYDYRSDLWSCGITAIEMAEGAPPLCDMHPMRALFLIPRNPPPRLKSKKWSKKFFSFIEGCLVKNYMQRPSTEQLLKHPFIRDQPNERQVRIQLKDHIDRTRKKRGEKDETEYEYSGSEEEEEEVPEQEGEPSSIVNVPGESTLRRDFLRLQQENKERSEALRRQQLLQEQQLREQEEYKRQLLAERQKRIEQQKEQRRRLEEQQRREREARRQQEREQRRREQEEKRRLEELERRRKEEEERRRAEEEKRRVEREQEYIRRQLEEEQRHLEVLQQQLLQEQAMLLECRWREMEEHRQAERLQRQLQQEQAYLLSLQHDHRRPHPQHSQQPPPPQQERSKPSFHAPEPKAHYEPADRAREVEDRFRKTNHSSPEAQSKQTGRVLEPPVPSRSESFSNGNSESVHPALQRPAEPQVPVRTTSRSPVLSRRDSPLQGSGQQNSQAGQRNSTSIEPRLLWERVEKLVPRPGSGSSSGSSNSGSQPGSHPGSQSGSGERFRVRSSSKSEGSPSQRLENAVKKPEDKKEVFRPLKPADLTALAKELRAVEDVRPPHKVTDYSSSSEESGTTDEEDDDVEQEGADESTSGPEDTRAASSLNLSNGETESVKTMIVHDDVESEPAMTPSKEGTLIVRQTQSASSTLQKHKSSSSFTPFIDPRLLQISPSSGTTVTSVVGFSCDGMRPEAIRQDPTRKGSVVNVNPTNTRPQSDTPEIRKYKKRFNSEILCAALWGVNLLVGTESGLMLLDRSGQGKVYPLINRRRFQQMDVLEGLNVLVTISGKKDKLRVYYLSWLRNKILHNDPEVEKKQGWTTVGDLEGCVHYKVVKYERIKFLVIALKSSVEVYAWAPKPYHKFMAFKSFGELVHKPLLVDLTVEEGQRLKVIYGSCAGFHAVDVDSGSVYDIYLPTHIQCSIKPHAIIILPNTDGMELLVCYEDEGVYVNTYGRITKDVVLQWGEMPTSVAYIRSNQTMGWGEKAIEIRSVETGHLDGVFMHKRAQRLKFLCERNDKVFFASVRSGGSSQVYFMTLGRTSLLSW
Outline: as §1

FGR = target: T5, FGR (Homo sapiens, UniProt P09769)
T5 construct: purchased Nanosyn (contract screening)
T5 sequence (P09769 whole entry): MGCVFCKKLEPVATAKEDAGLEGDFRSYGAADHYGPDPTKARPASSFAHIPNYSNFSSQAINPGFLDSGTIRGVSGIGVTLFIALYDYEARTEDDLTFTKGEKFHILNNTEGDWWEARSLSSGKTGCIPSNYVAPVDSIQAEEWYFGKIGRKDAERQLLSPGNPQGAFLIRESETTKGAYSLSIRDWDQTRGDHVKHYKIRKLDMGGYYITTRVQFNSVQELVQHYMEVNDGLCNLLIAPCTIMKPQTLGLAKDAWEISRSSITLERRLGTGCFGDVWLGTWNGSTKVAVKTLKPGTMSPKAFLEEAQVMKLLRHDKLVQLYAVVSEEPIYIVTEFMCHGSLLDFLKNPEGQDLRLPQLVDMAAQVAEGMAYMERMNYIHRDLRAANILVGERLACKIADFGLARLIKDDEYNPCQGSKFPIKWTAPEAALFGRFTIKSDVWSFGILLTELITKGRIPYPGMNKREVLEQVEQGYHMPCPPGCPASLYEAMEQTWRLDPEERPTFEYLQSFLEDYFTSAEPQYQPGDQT
Outline: as §1

SPHK2 = target: T6, SPHK2 (Homo sapiens, UniProt Q9NRA0)
T6 construct: Nanosyn (contract laboratory that ran the panel)
T6 sequence (Q9NRA0 1-654): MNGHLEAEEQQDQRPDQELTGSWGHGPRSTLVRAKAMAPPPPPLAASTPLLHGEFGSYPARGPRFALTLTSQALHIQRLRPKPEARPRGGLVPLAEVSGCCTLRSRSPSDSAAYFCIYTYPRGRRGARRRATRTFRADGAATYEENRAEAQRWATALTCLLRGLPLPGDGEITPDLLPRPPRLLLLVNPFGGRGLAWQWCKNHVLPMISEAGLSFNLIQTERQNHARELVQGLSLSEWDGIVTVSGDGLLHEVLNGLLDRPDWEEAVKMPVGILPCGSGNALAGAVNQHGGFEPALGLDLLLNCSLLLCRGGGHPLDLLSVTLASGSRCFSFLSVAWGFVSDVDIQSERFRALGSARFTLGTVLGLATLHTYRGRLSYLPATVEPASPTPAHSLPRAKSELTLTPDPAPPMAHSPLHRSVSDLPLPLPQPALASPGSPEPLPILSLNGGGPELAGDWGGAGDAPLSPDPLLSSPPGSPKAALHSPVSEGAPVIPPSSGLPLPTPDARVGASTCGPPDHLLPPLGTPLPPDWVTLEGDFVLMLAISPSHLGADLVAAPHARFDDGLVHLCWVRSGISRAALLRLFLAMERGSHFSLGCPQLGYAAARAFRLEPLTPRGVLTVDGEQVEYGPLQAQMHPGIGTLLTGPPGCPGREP
Outline: as §1

BRAF = target: T7, BRAF (Homo sapiens, UniProt P15056)
T7 construct: purchased Nanosyn (contract screening)
T7 sequence (P15056 whole entry): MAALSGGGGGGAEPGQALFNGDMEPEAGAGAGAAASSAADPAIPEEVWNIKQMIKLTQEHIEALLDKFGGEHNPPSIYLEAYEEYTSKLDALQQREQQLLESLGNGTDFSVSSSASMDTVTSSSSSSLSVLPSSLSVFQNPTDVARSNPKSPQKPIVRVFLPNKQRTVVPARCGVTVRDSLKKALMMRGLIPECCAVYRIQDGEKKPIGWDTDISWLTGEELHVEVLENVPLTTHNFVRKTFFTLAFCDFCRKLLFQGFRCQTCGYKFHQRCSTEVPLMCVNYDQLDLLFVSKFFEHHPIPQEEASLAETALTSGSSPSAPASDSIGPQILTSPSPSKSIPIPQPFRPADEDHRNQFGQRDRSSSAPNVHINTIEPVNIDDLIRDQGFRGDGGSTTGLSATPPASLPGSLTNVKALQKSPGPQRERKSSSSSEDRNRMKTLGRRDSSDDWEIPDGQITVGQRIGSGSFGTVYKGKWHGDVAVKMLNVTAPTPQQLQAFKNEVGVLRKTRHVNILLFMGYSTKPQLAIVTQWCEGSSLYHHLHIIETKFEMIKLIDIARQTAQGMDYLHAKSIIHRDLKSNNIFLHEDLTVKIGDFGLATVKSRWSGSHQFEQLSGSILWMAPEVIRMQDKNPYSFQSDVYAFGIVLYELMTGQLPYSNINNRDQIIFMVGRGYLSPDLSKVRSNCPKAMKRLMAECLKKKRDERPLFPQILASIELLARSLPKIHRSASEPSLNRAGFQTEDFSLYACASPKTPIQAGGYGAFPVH
Outline: as §1

SGK2 = target: T8, SGK2 (Homo sapiens, UniProt Q9HBY8)
T8 construct: Nanosyn (contract laboratory that ran the panel)
T8 sequence (Q9HBY8 1-367): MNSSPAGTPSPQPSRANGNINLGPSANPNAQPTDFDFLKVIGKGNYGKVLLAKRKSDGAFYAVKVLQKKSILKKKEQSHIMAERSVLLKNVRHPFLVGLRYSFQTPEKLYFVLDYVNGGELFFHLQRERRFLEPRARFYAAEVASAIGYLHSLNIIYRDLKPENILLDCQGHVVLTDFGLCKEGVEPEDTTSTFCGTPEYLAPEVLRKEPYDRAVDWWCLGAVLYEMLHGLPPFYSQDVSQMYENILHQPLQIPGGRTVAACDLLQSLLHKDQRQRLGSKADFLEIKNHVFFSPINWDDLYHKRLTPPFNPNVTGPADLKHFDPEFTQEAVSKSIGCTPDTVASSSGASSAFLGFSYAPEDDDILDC
Outline: as §1

BLK = target: T9, BLK (Homo sapiens, UniProt P51451)
T9 construct: purchased Nanosyn (contract screening)
T9 sequence (P51451 whole entry): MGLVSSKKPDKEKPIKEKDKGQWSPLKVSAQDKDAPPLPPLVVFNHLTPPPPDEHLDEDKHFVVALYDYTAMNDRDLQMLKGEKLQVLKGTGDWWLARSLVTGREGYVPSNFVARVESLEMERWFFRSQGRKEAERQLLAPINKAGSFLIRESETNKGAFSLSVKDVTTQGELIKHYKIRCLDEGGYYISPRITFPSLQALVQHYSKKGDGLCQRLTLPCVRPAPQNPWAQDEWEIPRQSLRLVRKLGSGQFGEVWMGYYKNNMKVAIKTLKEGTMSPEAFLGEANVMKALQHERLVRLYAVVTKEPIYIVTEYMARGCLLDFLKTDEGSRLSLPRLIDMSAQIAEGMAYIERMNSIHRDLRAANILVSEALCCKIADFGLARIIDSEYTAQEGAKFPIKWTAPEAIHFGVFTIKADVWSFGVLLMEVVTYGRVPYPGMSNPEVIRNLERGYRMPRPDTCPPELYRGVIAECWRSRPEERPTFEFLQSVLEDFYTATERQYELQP
Outline: as §1

MNK2 = target: T10, MNK2 (Homo sapiens, UniProt Q9HBH9)
T10 construct: Nanosyn (contract laboratory that ran the panel)
T10 sequence (Q9HBH9 whole entry): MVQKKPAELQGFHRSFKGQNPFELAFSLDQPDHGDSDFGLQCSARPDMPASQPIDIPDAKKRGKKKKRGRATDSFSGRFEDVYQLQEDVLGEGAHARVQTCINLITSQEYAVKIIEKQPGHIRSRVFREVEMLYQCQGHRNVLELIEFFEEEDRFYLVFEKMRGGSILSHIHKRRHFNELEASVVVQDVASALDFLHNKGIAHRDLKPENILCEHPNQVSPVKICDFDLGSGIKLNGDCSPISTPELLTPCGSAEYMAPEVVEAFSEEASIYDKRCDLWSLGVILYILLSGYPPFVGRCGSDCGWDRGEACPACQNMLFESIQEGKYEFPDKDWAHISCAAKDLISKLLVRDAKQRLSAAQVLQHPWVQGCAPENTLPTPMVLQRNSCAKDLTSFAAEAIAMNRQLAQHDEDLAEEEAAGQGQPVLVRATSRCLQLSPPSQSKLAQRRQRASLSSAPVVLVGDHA
Outline: as §1

PDGFRa = target: T11, PDGFRa (Homo sapiens, UniProt P16234)
T11 construct: Nanosyn (contract laboratory that ran the panel)
Outline: as §1

YES = target: T12, YES (Homo sapiens, UniProt P07947)
T12 construct: Nanosyn (contract laboratory that ran the panel)
T12 sequence (P07947 whole entry): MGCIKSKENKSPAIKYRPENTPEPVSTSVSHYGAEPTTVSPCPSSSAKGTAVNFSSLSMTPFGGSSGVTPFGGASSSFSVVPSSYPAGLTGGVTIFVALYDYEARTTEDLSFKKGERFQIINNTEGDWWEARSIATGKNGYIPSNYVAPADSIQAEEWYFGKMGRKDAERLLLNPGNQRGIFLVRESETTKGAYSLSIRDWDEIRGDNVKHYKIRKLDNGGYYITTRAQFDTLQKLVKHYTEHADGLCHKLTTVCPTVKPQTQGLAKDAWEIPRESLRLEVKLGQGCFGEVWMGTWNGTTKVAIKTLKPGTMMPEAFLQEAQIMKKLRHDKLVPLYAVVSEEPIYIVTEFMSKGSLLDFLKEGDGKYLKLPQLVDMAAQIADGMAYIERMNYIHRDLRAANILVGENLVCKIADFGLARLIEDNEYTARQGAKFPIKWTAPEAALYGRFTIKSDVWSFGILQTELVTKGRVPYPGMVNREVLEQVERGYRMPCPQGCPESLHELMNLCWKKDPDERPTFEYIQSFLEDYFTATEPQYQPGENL
Outline: as §1

DDR2 = target: T13, DDR2 (Homo sapiens, UniProt Q16832)
T13 construct: purchased Nanosyn (contract screening)
T13 sequence (Q16832 22-855): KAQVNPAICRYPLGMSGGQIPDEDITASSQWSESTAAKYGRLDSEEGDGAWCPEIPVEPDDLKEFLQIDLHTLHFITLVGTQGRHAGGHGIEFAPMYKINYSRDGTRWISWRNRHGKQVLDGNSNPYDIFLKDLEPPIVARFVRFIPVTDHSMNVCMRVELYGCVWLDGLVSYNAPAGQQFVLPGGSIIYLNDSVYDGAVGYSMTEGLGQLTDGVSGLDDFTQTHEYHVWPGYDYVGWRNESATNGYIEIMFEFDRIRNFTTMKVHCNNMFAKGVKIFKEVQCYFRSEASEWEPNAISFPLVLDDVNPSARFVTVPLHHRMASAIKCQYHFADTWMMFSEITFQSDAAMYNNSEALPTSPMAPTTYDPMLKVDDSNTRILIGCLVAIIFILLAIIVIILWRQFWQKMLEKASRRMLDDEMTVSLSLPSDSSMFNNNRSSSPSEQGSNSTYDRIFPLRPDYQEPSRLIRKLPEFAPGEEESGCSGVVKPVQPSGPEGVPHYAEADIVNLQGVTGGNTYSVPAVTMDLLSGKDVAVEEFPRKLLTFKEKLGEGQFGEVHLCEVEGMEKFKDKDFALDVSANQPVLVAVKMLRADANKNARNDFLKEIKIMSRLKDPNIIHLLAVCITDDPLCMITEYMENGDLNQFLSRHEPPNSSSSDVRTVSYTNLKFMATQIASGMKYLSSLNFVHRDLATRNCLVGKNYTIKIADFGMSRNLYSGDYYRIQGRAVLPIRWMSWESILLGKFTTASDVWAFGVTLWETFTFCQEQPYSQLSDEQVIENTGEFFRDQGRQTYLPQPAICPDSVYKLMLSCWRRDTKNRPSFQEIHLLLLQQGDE
Outline: as §1

T1 sequence (P12931 whole entry): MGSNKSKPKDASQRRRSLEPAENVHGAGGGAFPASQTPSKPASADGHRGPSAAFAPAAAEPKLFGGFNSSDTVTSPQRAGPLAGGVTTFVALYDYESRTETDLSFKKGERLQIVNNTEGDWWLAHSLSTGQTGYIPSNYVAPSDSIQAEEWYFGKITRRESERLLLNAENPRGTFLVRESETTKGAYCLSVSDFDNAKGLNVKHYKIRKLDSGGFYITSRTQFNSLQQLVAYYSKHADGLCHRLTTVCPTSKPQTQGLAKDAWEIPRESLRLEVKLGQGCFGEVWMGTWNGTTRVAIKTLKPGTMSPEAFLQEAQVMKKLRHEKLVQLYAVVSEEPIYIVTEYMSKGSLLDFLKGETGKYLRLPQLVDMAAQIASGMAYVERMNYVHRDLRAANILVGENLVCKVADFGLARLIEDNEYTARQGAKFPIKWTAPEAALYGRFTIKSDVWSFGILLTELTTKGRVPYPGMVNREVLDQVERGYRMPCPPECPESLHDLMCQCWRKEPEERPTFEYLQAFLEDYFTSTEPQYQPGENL

| inhibition at 5 µM (SRC) | inhibition at 5 µM (LYNb) | inhibition at 5 µM (p38b) | inhibition at 5 µM (HGK) | inhibition at 5 µM (FGR) | inhibition at 5 µM (SPHK2) | inhibition at 5 µM (BRAF) | inhibition at 5 µM (SGK2) | inhibition at 5 µM (BLK) | inhibition at 5 µM (MNK2) | inhibition at 5 µM (PDGFRa) | inhibition at 5 µM (YES) | inhibition at 5 µM (DDR2) | Structure (SMILES) |
| --- | --- | --- | --- | --- | --- | --- | --- | --- | --- | --- | --- | --- | --- |
| < 79% | < 79% | < 79% | < 79% | < 79% | < 79% | ≥ 95% | < 79% | < 79% | < 79% | < 79% | < 79% | < 79% | Cc1ccc(NC(=O)c2cc([S+](C)[O-])n(-c3ccc(F)cc3)n2)cc1-c1cc(N2CCOCC2)c(=O)n(C)c1 (stereo not shown) [Ex11, 1-(4-fluorophenyl)-N-(4-methyl-3-(1-methyl-5-morpholino-6-oxo-1,6-dihydropyridin-3-yl)phenyl)-5-(methylsulfinyl)-1H-pyrazole-3-carboxamide] |
| < 79% | < 79% | < 79% | < 79% | < 79% | < 79% | ≥ 95% | < 79% | < 79% | < 79% | < 79% | < 79% | < 79% | Cc1ccc(NC(=O)c2cc(S(C)(=O)=O)n(-c3ccc(F)cc3)n2)cc1-c1cc(N2CCOCC2)c(=O)n(C)c1 [Ex12, 1-(4-fluorophenyl)-N-(4-methyl-3-(1-methyl-5-morpholino-6-oxo-1,6-dihydropyridin-3-yl)phenyl)-5-(methylsulfonyl)-1H-pyrazole-3-carboxamide] |
| < 79% | ≥ 95% | < 79% | < 79% | < 79% | 80 to 89% | ≥ 95% | < 79% | < 79% | < 79% | ≥ 95% | < 79% | ≥ 95% | Cc1ccc(NC(=O)c2cc(S(C)(=O)=O)n(-c3ccc(F)cc3)n2)cc1Nc1nccc(-c2cccnc2N)n1 [Ex13, N-(3-((4-(2-aminopyridin-3-yl)pyrimidin-2-yl)amino)-4-methylphenyl)-1-(4-fluorophenyl)-5-(methylsulfonyl)-1H-pyrazole-3-carboxamide] |
| < 79% | ≥ 95% | < 79% | < 79% | 80 to 89% | < 79% | ≥ 95% | < 79% | 80 to 89% | < 79% | < 79% | < 79% | ≥ 95% | Cc1ccc(NC(=O)c2cc(S(C)(=O)=O)n(-c3ccc(F)cc3)n2)cc1C#Cc1cnc2cccnn12 [Ex14, 1-(4-fluorophenyl)-N-(3-(imidazo[1,2-b]pyridazin-3-ylethynyl)-4-methylphenyl)-5-(methylsulfonyl)-1H-pyrazole-3-carboxamide] |
| 90 to 94% | ≥ 95% | 80 to 89% | < 79% | 80 to 89% | < 79% | ≥ 95% | < 79% | < 79% | < 79% | ≥ 95% | ≥ 95% | ≥ 95% | CCOC(=O)Nc1cn2nc(Nc3cc(NC(=O)c4cc(S(C)(=O)=O)n(-c5ccc(F)cc5)n4)ccc3C)ccc2n1 [Ex15, ethyl (6-((5-(1-(4-fluorophenyl)-5-(methylsulfonyl)-1H-pyrazole-3-carboxamido)-2-methylphenyl)amino)imidazo[1,2-b]pyridazin-2-yl)carbamate] |
| < 79% | < 79% | < 79% | < 79% | < 79% | < 79% | < 79% | < 79% | < 79% | < 79% | < 79% | < 79% | < 79% | CNC(=O)c1cc(Oc2ccc(NC(=O)c3cc(S(C)(=O)=O)n(-c4ccc(F)cc4)n3)c(F)c2)ccn1 [Ex17, 4-(3-fluoro-4-(1-(4-fluorophenyl)-5-(methylsulfonyl)-1H-pyrazole-3-carboxamido)phenoxy)-N-methylpicolinamide] |
| 80 to 89% | < 79% | 80 to 89% | < 79% | 80 to 89% | 80 to 89% | 90 to 94% | < 79% | < 79% | < 79% | 90 to 94% | 90 to 94% | ≥ 95% | CCOC(=O)Nc1cn2nc(Nc3cc(NC(=O)c4cc([S+](C)[O-])n(-c5ccc(F)cc5)n4)ccc3C)ccc2n1 (stereo not shown) [Ex18, ethyl (6-((5-(1-(4-fluorophenyl)-5-(methylsulfinyl)-1H-pyrazole-3-carboxamido)-2-methylphenyl)amino)imidazo[1,2-b]pyridazin-2-yl)carbamate] |

From US20240400577A1, “MODULATORS OF PROTEIN KINASES” (VIBLIOME THERAPEUTICS, LLC, priority 2021, published 2024)
